Marks after values point to notes of the source that are not given here.
Experiments:
[1] = system: HCT-116 colon adenocarcinoma cells; assay: Example Q: HCT-116 liver metastases of human colorectal cancer in nude mice; type: in vivo; details: 240 μmol/kg/day oral, 28 days
Source text: A major cause of morbidity and mortality in patients with colorectal cancer is metastasis of the tumor into the liver; colorectal cancer can often be successfully resected from the primary site, but metastases to the liver are much less accessible to surgical treatment. A mouse model of colorectal cancer metastasis to the liver has been established, using HCT-116 colon adenocarcinoma cells injected into the spleen of athymic (nude) mice. The HCT-116 cancer cells spontaneously spread from the spleen into the liver via the circulation, and they form tumors in the liver (Ishizu, K., Sunose, N., Yamazaki, K., Tsuruo, T., Sadahiro, S., Makuuchi, H., and Yamori, T. Development and Characterization of a Model of Liver Metastasis Using Human Colon Cancer HCT-116. Biol. Pharm. Bull. 2007, 30(9):1779-1783).
Mice (female Hsd:athymic nude-Foxn1^nu) were anesthetized with xylazine/ketamine intraperitoneal injection, followed by incision approximately 10 mm on the left subcostal region (area disinfected with ethanol) to expose the peritoneum. The peritoneum was opened for about 8 mm near the spleen, and 2.5×10^6 cells in 50 μL PBS were injected into the spleen using a 30G needle. The spleen was repositioned, and the surgical area was closed using sutures and clips.
The day after receiving cells, mice were randomized into groups of five based upon body weight to provide groups with approximately equivalent mean body weight. Mice received a single, daily oral dose of test article or vehicle (1% hydroxypropylmethylcellulose) beginning 48 hours following cell injection into the spleen.
At study termination 28 days after HCT-116 cell injection, body weights were recorded, and spleens and livers were removed, weighed and fixed in 10% formalin. Livers were sectioned and stained; the relative areas of normal and tumor tissue were quantified in histology sections with quantitative planimetry software.

[2] = system: Hep3B hepatocellular carcinoma cell line; details: for Tumor Weight (g) Mean ± SEM: Hep3B in liver of nude mice, day 35, oral daily, sorafenib 30 mg/kg/day alone, 20 mg/kg/day in combination, AC 180, AK and AB 360 μmol/kg/day; for Body Weight (g) Mean ± SEM Initial: in vivo; for Complete Regressions: number of mice with no viable tumor at necropsy, doses as Table 35
Source text: Hepatocellular carcinoma (HCC) is one of the most common and lethal cancers worldwide, generally developing as a consequence of chronic infection with hepatitis B or C viruses. […] The Hep3B hepatocellular carcinoma cell line is human in origin, contains genetic traces of hepatitis B virus, and can be injected into the livers of athymic immunocompromised mice as a model of primary HCC. […] The test compounds were all administered orally.
The test compounds of the invention were suspended in 1% hydroxypropylmethylcellulose (HPMC) using a sonicator equipped with a microtip to minimize particle size and maximize uniformity of the suspension. Sorafenib was dissolved in a 1:1 mixture of Cremophor EL and ethanol by heating to 60° C. for 1 minute and then sonicating for 10 minutes to fully suspend. Female nude mice (Hsd:athymic nude-Foxn1^nu) weighing approximately 25 g were anesthetized with ketamine/xylazine, laid on their backs, and a 1-cm transverse incision made through the skin and peritoneum of the left upper abdomen. The mediant lobe of the liver was exposed by applying gentle pressure on the abdomen. 1.5-2×10^6 Hep3B cells in a 20 μL volume of matrigel:EMEM serum free (1:1) were slowly implanted by subserosal injection into the liver using a 27-gauge needle on a Hamilton syringe. The liver was allowed to slip back into place, and the peritoneum was closed with sutures and wound clips.
Mice were divided into 8 groups of mice each following injection of cells; the vehicle/vehicle group comprised 12 mice and the other groups comprised 8 or 9. Mice began receiving oral test drug treatments 48 hr post cell injection.
The test compounds, sorafenib, and vehicles were administered by oral gavage. Sorafenib or its cremophor-containing vehicle were given in the morning and compounds of the invention or their HPMC vehicle was administered in the afternoon each day; all animals received two gavage treatments of drugs or appropriate vehicles daily.

[3] = system: EAE induced by PLP139-151; assay: Example G: Experimental Autoimmune Encephalitis (EAE) mouse model of multiple sclerosis; type: in vivo
[4] = system: Vit-D3 activated THP-1 cells; assay: Example B: Acridine Orange (A.O.) uptake, lysosomal acidification and integrity; type: cell-based, Human; details: 5 hours
Experimental: In this experiment, cell viability was monitored and uptake and accumulation of acridine orange, a lysosomotropic fluorescent dye, was used to assess lysosomal acidification and integrity. JC-1 dye was used to measure effects of test compounds on mitochondrial membrane potential (MMP); reduction of MMP is a feature of apoptotic cell death. • 1. […] The tubes were washed twice in DPBS, resuspended in 500 μl DPBS and acquired on the FACSCalibur.

[5] = system: Vit-D3 activated THP-1 cells; assay: Example B: JC-1 mitochondrial loading (mitochondrial membrane potential); type: cell-based, Human; details: 5 hours
Experimental: In this experiment, cell viability was monitored and uptake and accumulation of acridine orange, a lysosomotropic fluorescent dye, was used to assess lysosomal acidification and integrity. JC-1 dye was used to measure effects of test compounds on mitochondrial membrane potential (MMP); reduction of MMP is a feature of apoptotic cell death.
• 1. Vit-D3 activated THP-1 cells (0.5×10^6 cells in 2 ml) were transferred to the wells of a 24-well dish • 2. […] […] LPS from E. coli 0111:B4 (1 ng/ml final concentration) was added to some wells • 5. After 5 hours viable cell count, Acridine Orange (A.O.) uptake and JC-1 mitochondrial loading were determined by fluorescence-activated cell sorting (FACS)
THP-1 cells (p39) treated with 0.1 μM vit-D3 (100 μM) in DMSO] for 3 days were counted, spun down, resuspended in serum-free RPMI (Lonza 12-115F) and transferred to the wells of two 24-well dishes (0.5×10^6 cells in 2 ml). […] Crude-LPS from E. coli 0111:B4 was added to some wells (1 ng/ml final conc) and the plates placed in a 37 C incubator. 1 μl of Baf A1 (50 nM final conc) was added to one well (no LPS) at T=4 hours to serve as a compensation control for Acridine Orange loading. After 5 hours, 500 μl aliquots of cells were transferred to FACS tubes and viable cell counts, A.O. loading and JC-1 accumulation determined by FACS.

[6] = HCT-116 liver metastases, nude mice

CCCCCCOc1ccc(CNc2ccnc3ccccc23)cc1 [AA, N-[4-(Hexyloxy)benzyl]quinolin-4-amine]
Final Body Weight Grams [1, 6]: 28.2 ± 1.5 NS Grams | Liver Weight % of Body Weight [1, 6]: 5.3 ± 0.2% | Tumor Area % of Vehicle Group [1, 6]: 1.5% * | Tumor Area % of Total Liver ([1]; HCT-116 liver metastases, nude mice, histology planimetry): 0.2 ± 0.26%

CCCCCCOc1cccc(CNc2ncnc3ccccc23)c1 [AK, N-[3-(Hexyloxy)benzyl]quinazolin-4-amine]
Tumor Weight (g) Mean ± SEM [2]: 1.56 ± 0.39^ g | Body Weight (g) Mean ± SEM Initial [2]: 25.9 ± 0.7 g | Complete Regressions ([2]; day 35): 2 | reduction of tumor size versus vehicle ([2]; single agents, oral, day 35, sorafenib 30 mg/kg/day): numerically but not statistically significant reduction in tumor size versus vehicle

CCCCCCOc1cccc(OCCCNc2ccnc3ccccc23)c1 [AZ, N-{3-[3-(Hexyloxy)phenoxy]propyl}quinolin-4-amine]
EAE Score on Day 46 ([3]; 60 μmol/kg by oral gavage from Day 14, score 0-5): 2.50 ± 0.29 | EAE Score on Day 14 (Before Treatment) ([3]; baseline, score 0-5): 0.83 ± 0.41

CCCCCCOc1cccc(CNc2ccnc3ccccc23)c1 [Compound AC, N-[3-(Hexyloxy)benzyl]quinolin-4-amine]
A.O. FL-3 fluorescence (MFI) percent change from DMSO no LPS, Mean ± SE ([4]; 0.1 μM AC, 1 ng/ml LPS): −54.72 ± 2.74% | A.O. FL-3 fluorescence (MFI) percent change from DMSO no LPS, Mean ± SE ([4]; 0.1 μM AC, No LPS): −27.64 ± 9.68% | A.O. FL-3 fluorescence (MFI) percent change from DMSO no LPS, Mean ± SE ([4]; 0.5 μM AC, 1 ng/ml LPS): −68.24 ± 2.39% | A.O. FL-3 fluorescence (MFI) percent change from DMSO no LPS, Mean ± SE ([4]; 0.5 μM AC, No LPS): −54.59 ± 4.05% | A.O. FL-3 fluorescence (MFI) percent change from DMSO no LPS, Mean ± SE ([4]; 1.0 μM AC, 1 ng/ml LPS): −81.11 ± 2.65% | A.O. FL-3 fluorescence (MFI) percent change from DMSO no LPS, Mean ± SE ([4]; 1.0 μM AC, No LPS): −69.52 ± 2.05% | JC-1 Red cells (functional mitochondria) percent change from DMSO (no LPS), Mean ± SE ([5]; 0.1 μM AC, 1 ng/ml LPS): −1.66 ± 0.96% | JC-1 Red cells (functional mitochondria) percent change from DMSO (no LPS), Mean ± SE ([5]; 0.1 μM AC, No LPS): 1.18 ± 0.91% | JC-1 Red cells (functional mitochondria) percent change from DMSO (no LPS), Mean ± SE ([5]; 0.5 μM AC, 1 ng/ml LPS): −7.19 ± 1.52% | JC-1 Red cells (functional mitochondria) percent change from DMSO (no LPS), Mean ± SE ([5]; 0.5 μM AC, No LPS): −4.39 ± 1.40% | JC-1 Red cells (functional mitochondria) percent change from DMSO (no LPS), Mean ± SE ([5]; 1.0 μM AC, 1 ng/ml LPS): −16.41 ± 2.60% | JC-1 Red cells (functional mitochondria) percent change from DMSO (no LPS), Mean ± SE ([5]; 1.0 μM AC, No LPS): −10.40 ± 2.08% | excess of the Vehicle group's liver weight/body weight ratio over the treated group [1]: 12% | area of liver invaded by metastatic cancer cells, in words ([1]; histology planimetry): markedly reduced the area of liver invaded by metastatic cancer cells | Tumor Weight (g) Mean ± SEM [2]: 0.49 ± 0.17 g | Body Weight (g) Mean ± SEM Initial [2]: 25.4 ± 0.5 g | Complete Regressions ([2]; day 35): 2

From patent publication US20250034139A1, “AMINE COMPOUNDS HAVING ANTI-INFLAMMATORY, ANTIFUNGAL, ANTIPARASITIC, AND ANTICANCER ACTIVITY” (PHARMA CINQ, LLC, priority 2013, published 2025)
